Test results as given in patent US5817818A, “Androstenones” (Glaxo Wellcome Inc., priority 1996, dated 1998).

How the values were obtained:
Type in all cases: biochemical
[1] = biological target: T1, human type 2 5α-reductase (Homo sapiens, UniProt P31213); experiment: Inhibition of human type 2 steroid 5α-reductase (microsomes; testosterone to DHT conversion); details: 20 min preincubation, pH 6.0, 8 nM testosterone, 20-40 min, 1 mM NADPH; read-out: IC50 Human Type 2 5AR
T1 construct: made in house; host or cells: Sf9 insect cells, recombinant baculovirus; microsomes
T1 sequence (P31213 1-254): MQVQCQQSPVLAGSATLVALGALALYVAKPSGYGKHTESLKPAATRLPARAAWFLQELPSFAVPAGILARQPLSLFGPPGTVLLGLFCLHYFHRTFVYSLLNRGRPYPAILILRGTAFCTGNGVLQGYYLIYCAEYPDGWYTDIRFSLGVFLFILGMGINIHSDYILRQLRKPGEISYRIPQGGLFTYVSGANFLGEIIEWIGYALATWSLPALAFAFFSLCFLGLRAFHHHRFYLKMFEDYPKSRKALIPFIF
Description: (§1) Enzyme activities may be determined using microsomes derived from: 1) prostate tissue from benign prostatic hyperplasia (BPH) patients; 2) recombinant baculovirus infected SF9 cells that express human type 1 5α-reductase; or 3) recombinant baculovirus infected SF9 cells that express human type 2 5α-reductase. Microsomes were prepared by homogenization of the tissue or cells, followed by differential centrifugation of the homogenate. Microsome extracts were incubated with varying concentrations of [1,2,6,7-^3 H]-testosterone, 1 mM NADPH, and varying amounts of the compounds of formula (I,) i.e. a test compound, in buffer containing a NADPH regenerating system capable of maintaining NADPH concentrations for a period of time within the range 0.5-240 minutes. Corresponding incubations were carried out with no test compound as a control study.
(§2) For type 1 IC50 measurements, assay components except testosterone were preincubated for 10 minutes at pH 7.0, and following the addition of 100 nM testosterone the assays were allowed to proceed for 10-120 minutes. For type 2 IC50 measurements, assay components except testosterone were preincubated for 20 minutes at pH 6.0, and following the addition of 8 nM testosterone the assays were allowed to proceed for 20-40 minutes. The percentage of conversion of testosterone to DHT in the presence of test compounds compared to the corresponding conversion in the control study was estimated using high performance liquid chromatography (HPLC) with radiochemical detection.

Human Adrenal 3BHSD = biological target: T2, Human Adrenal 3BHSD (Homo sapiens, UniProt P26439); experiment: Inhibition of human adrenal 3β-hydroxy-Δ^5-steroid dehydrogenase/3-keto-Δ^5-steroid isomerase (3BHSD) (microsomes; DHEA to androstenedione conversion); details: 1 mM NAD+, pH 7.5, 1 to 60 minutes
T2 construct: microsomes derived from human adrenal tissues; from tissue; host or cells: human adrenal tissue, microsomes
T2 sequence (P26439 1-372): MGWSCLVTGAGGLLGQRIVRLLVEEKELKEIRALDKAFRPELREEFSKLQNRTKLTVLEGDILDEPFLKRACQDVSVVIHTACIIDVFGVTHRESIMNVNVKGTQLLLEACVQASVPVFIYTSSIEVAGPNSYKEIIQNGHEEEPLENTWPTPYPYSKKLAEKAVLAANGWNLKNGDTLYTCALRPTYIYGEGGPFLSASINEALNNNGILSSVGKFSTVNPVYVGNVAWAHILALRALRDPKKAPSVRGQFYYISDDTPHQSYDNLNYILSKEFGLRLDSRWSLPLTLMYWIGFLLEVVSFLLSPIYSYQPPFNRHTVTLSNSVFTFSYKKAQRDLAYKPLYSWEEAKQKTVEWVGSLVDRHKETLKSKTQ
Description: Enzyme activities are measured using microsomes derived from human adrenal tissues. Microsomes were prepared by homogenization of the tissue followed by differential centrifugation of the homogenate. Microsome extracts were incubated with varying concentrations of dehydroepiandrosterone (DHEA), 1 mM NAD+, and varying amounts of the compounds of Formula (I), i.e. a test compound, in pH 7.5 buffer for a period of time within the range of 1 to 60 minutes. Corresponding incubations were carried out with no test compound as a control study. The percentage of conversion of DHEA to androstenedione in the presence of test compounds compared to the corresponding conversion in the control study was estimated using HPLC with radiochemical detection.

[2] = biological target: T3, human type 1 5α-reductase (Homo sapiens, UniProt P18405); experiment: Inhibition of human type 1 steroid 5α-reductase (microsomes; testosterone to DHT conversion); details: 10 min preincubation, pH 7.0, 100 nM testosterone, 10-120 min, 1 mM NADPH; read-out: IC50 Human Type 1 5AR
T3 construct: made in house; host or cells: Sf9 insect cells, recombinant baculovirus; microsomes
T3 sequence (P18405 1-259): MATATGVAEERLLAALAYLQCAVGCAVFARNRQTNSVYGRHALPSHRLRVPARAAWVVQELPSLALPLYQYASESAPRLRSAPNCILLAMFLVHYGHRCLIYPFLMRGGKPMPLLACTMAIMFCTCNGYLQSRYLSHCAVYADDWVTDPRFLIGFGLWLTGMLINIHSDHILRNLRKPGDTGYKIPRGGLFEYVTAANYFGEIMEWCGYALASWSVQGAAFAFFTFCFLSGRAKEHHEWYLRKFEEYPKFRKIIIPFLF
Description: as §1, §2

Structure (SMILES) | IC50 [1] [nM] | Ki (Human Adrenal 3BHSD) [nM] | IC50 [2] [nM]
CN1C(=O)CC[C@]2(C)[C@H]3CC[C@]4(C)[C@@H](C(=O)NC5(c6ccc(Cl)cc6)CCCC5)CC[C@H]4[C@@H]3CC[C@@H]12 [Compound 2, 17β-N-1-(4-Chlorophenyl)cyclopentylcarbamoyl-4-methyl-4-aza-5α-androstan-3-one] | < 1 | 10 to 10000 | < 1
CC(C)(C)c1ccc(C2(NC(=O)[C@H]3CC[C@H]4[C@@H]5CC[C@H]6NC(=O)C=C[C@]6(C)[C@H]5CC[C@]34C)CCC(C(C)(C)C)CC2)cc1 (stereo partly drawn) [Compound 18, 17β-N-1-(4-t-Butylphenyl)-4-t-Butylcyclohexylcarbamoyl-4-aza-5α-androst-1-en-3-one] | < 1 | > 1000 | 1 to 10
C[C@]12C=CC(=O)N[C@@H]1CC[C@@H]1[C@@H]2CC[C@]2(C)[C@@H](C(=O)NC3(c4ccc(F)cc4)CCCCC3)CC[C@@H]12 [Compound 10, 17β-N-1-(4-Fluorophenyl)cyclohexylcarbamoyl-4-aza-5α-androst-1-en-3-one] | < 1 | > 1000 | 1 to 10
C[C@]12C=CC(=O)N[C@@H]1CC[C@@H]1[C@@H]2CC[C@]2(C)[C@@H](C(=O)NC3(c4ccc(Cl)cc4Cl)CC3)CC[C@@H]12 [Compound 15, 17β-N-1-(2,4-Dichlorophenyl)cyclopropylcarbamoyl-4-aza-5α-androst-1-en-3-one] | < 1 | > 1000 | 1 to 10
CC(C)(C)c1ccc(C2(NC(=O)[C@H]3CC[C@H]4[C@@H]5CC[C@H]6NC(=O)C=C[C@]6(C)[C@H]5CC[C@]34C)CCCCCC2)cc1 [Compound 13, 17β-N-1-(4-t-Butylphenyl)cycloheptylcarbamoyl-4-aza-5α-androst-1-en-3-one] | < 1 | > 1000 | 1 to 10
CC(C)(C)c1ccc(C2(NC(=O)[C@H]3CC[C@H]4[C@@H]5CC[C@H]6NC(=O)C=C[C@]6(C)[C@H]5CC[C@]34C)CCCC2)cc1 [Compound 4, 17β-N-1-(4-t-Butylphenyl)cyclopentylcarbamoyl-4-aza-5α-androst-1-en-3-one] | < 1 | > 1000 | 1 to 10
C[C@]12C=CC(=O)N[C@@H]1CC[C@@H]1[C@@H]2CC[C@]2(C)[C@@H](C(=O)NC3(c4ccc(C(F)(F)F)cc4)CCCC3)CC[C@@H]12 [Compound 7, 17β-N-1-(4-Trifluoromethylphenyl)cyclopentylcarbamoyl-4-aza-5α-androst-1-en-3-one] | < 1 | > 1000 | 1 to 10
CC(C)(C)c1ccc(C2(NC(=O)[C@H]3CC[C@H]4[C@@H]5CC[C@H]6NC(=O)C=C[C@]6(C)[C@H]5CC[C@]34C)CCOCC2)cc1 [Compound 14, 17β-N-4-(4-t-Butylphenyl)tetrahydropyranylcarbamoyl-4-aza-5α-androst-1-en-3-one] | < 1 | > 1000 | 1 to 10
C[C@]12C=CC(=O)N[C@@H]1CC[C@@H]1[C@@H]2CC[C@]2(C)[C@@H](C(=O)NC3(c4ccc(Cl)cc4)CCCCC3)CC[C@@H]12 [Compound 6, 17β-N-1-(4-Chlorophenyl)cyclohexylcarbamoyl-4-aza-5α-androst-1-en-3-one] | < 1 | > 1000 | 1 to 10
C[C@]12C=CC(=O)N[C@@H]1CC[C@@H]1[C@@H]2CC[C@]2(C)[C@@H](C(=O)NC3(c4ccc(F)cc4)CCCC3)CC[C@@H]12 [Compound 9, 17β-N-1-(4-Fluorophenyl)cyclopentylcarbamoyl-4-aza-5α-androst-1-en-3-one] | < 1 | > 1000 | 1 to 10
COc1ccc(C2(NC(=O)[C@H]3CC[C@H]4[C@@H]5CC[C@H]6NC(=O)C=C[C@]6(C)[C@H]5CC[C@]34C)CCCC2)cc1 [Compound 8, 17β-N-1-(4-Methoxyphenyl)cyclopentylcarbamoyl-4-aza-5α-androst-1-en-3-one] | < 1 | > 1000 | 1 to 10

Other lines, results leading:

IC50 [1] [nM] | Ki (Human Adrenal 3BHSD) [nM] | IC50 [2] [nM] | Structure (SMILES)
< 1 | > 1000 | 1 to 10 | C[C@]12CCC(=O)N[C@@H]1CC[C@@H]1[C@@H]2CC[C@]2(C)[C@@H](C(=O)Nc3cc(C(F)(F)F)ccc3C(F)(F)F)CC[C@@H]12 [Compound 22, 17β-N-(2,5-bis(Trifluoromethyl))phenylcarbamoyl-4-aza-5α-androstan-3-one]
< 1 | 10 to 10000 | 1 to 10 | CC(C)(C)c1ccc(C(C)(C)C)c(NC(=O)[C@H]2CC[C@H]3[C@@H]4CC[C@H]5NC(=O)C=C[C@]5(C)[C@H]4CC[C@]23C)c1 [Compound 27, 17β-N-(2,5-Di-t-butyl)phenylcarbamoyl-4-aza-5α-androst-1-en-3-one]
< 1 | 10 to 10000 | < 1 | CN1C(=O)CC[C@]2(C)[C@H]3CC[C@]4(C)[C@@H](C(=O)Nc5cc(C(F)(F)F)ccc5C(F)(F)F)CC[C@H]4[C@@H]3CC[C@@H]12 [Compound 23, 17β-N-(2,5-bis(Trifluoromethyl))phenylcarbamoyl-4-methyl-4-aza-5α-androstan-3-one]
< 1 | > 1000 | < 1 | CCC1(CC)CC1(NC(=O)[C@H]1CC[C@H]2[C@@H]3CC[C@H]4NC(=O)C=C[C@]4(C)[C@H]3CC[C@]12C)c1ccc(-c2ccccc2)cc1 (stereo partly drawn) [Compound 21, 17β-N-1-(4-Biphenyl)-2,2-diethylcyclopropylcarbamoyl-4-aza-5α-androst-1-en-3-one]
1 to 10 | > 1000 | 1 to 10 | C[C@H]1C[C@H]2NC(=O)C=C[C@]2(C)[C@H]2CC[C@]3(C)[C@@H](C(=O)Nc4cc(C(F)(F)F)ccc4C(F)(F)F)CC[C@H]3[C@H]12 [Compound 30, 17β-N-(2,5-bis(Trifluoromethyl))phenylcarbamoyl-4-aza-7β-methyl-5α-androst-1-en-3-one]
1 to 10 | > 1000 | 1 to 10 | C[C@H]1C[C@H]2NC(=O)C=C[C@]2(C)[C@H]2CC[C@]3(C)[C@@H](C(=O)Nc4cc(C(F)(F)F)ccc4C(C)(C)C)CC[C@H]3[C@H]12 [Compound 31, 17β-N-(2-t-Butyl-5-trifluoromethyl)phenylcarbamoyl-4-aza-7β-methyl-5α-androst-1-en-3-one]
< 1 | 10 to 10000 | < 1 | CN1C(=O)CC[C@]2(C)[C@H]3CC[C@]4(C)[C@@H](C(=O)Nc5cc(C(F)(F)F)ccc5C(C)(C)C)CC[C@H]4[C@@H]3CC[C@@H]12 [Compound 26, 17β-N-(2-t-Butyl-5-trifluoromethyl)phenylcarbamoyl-4-methyl-4-aza-5α-androstan-3-one]
< 1 | > 1000 | < 1 | CC(C)(C)c1ccc(C2(NC(=O)[C@H]3CC[C@H]4[C@@H]5CC[C@H]6NC(=O)C=C[C@]6(C)[C@H]5CC[C@]34C)CCSCC2)cc1 [Compound 20, 17β-N-4-(4-t-Butylphenyl)tetrahydrothiopyranylcarbamoyl-4-aza-5α-androst-1-en-3-one]
